Like-named read-outs stand apart in the source and are kept apart here.
Key:
[1] = Turbidity, derived count rate of scattered light; format: physicochemical; settings: for Zeta Count Rate / kcps / Count Rate: derived count rate of scattered light; for Count Rate / kcps: derived count rate of scattered light at 633 nm, 173°, from zeta-potential measurement, 0.1 mg/mL in 1 mM KCl after 1 d at 1 mg/mL in PBS, turbidity / microscopic aggregation, mean of triplicate; for Log Count Rate: log of derived count rate
Procedure, shortened: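 One-day room-temperature aggregation at 1 mg/mL in PBS (pH 7.4) preceded measurement; samples then went into 1 mM KCl. Triplicates per sample, two independent experiments averaged.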

[2] = Zeta-potential measurement; format: physicochemical; settings: for Zeta-pot. / mV: zeta potential of peptide, Fig S15 source data
Procedure, shortened: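 Dissolve peptide from DMSO (10 mg/mL stock) into PBS pH 7.4 to 1 mg/mL. Incubate 1 d, RT. Dilute in 1 mM KCl just before reading. Derive zeta potential from mobility (Smoluchowski).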

[3] = category 1 or 0 derived from the count rate, key not given
[4] = mean, std deviation in next column
[5] = category derived from the zeta potential
[6] = mean, std deviation in separate column
[7] = Log10 of derived count rate of scattered light (turbidity)
[8] = log10 of derived count rate of scattered light (turbidity)
[9] = turbidity, Log10 of derived count rate of scattered light, Figure 3A source data
[10] = zeta potential of peptide assemblies
[11] = zeta-potential of peptide, source data of Figure 2C
[12] = zeta-potential of the peptide assemblies, mean, Figure 3A source data
[13] = category 1 or 0 from count rate, key not given
[14] = Fig S8 panels A, C, asymmetric log errors

Row | Substance | Zeta Count Rate Category ([1]; category 1 / 0, no key given) | Zeta Count Rate / kcps [1] [kcps] | Zeta Count Rate / kcps [1, 4] [kcps] | Zeta Pot. / mV [2] [mV] | Zeta category ( +1 = if > 4 mV;-1 = if < -4 mV; 0 = -4mV to 4 mV) [2] | Zeta Pot. / mV ([2]; mean, Std Zeta in next column) [mV] | Zeta-pot. / mV [2] [mV] | Zeta Count Rate Category ([1]; category 1/0, no key printed) | Zeta Count Rate / kcps [1, 6] [kcps] | Zeta Pot. / mV ([2]; mean, Std in separate column) [mV] | Zeta Count Rate Category [1, 13] | Zeta category ( +1 = if > 4 mV;-1 = if < -4 mV; 0 = -4mV to 4 mV) ([2]; category from zeta potential) | also measured
1 | KLKQLL [KM27 / psis14] | 1 | 319.9 | 319.9 | -8.46 | -1 (-1 = if < -4 mV) | -8.46 | -8.46 | – | – | – | – | – | Zeta Count Rate Category [1, 3]: 1; Zeta category ( +1 = if > 4 mV;-1 = if < -4 mV; 0 = -4mV to 4 mV) [2, 5]: -1 (-1 = if < -4 mV)
2 | CKFKFQFNMW [KB14] | – | – | 4107 | – | 1 (+1 = if > 4 mV) | 18.4 | 18.4 | 1 | 4107 | 18.4 | – | – | –
3 | QCKFKQFFNM [CK11] | 1 | 10384.7 | 10384.7 | 13.67 | 1 (+1 = if > 4 mV) | 13.67 | 13.67 | – | 10384.7 | 13.67 | – | – | Zeta Count Rate Category [1, 3]: 1; Zeta category ( +1 = if > 4 mV;-1 = if < -4 mV; 0 = -4mV to 4 mV) [2, 5]: 1 (+1 = if > 4 mV)
4 | CKIKIQINMWQ | – | – | – | – | – | – | – | – | – | – | – | – | Log10 Count Rate [1, 7]: 3.274; Count Rate / kcps [1]: 1881 kcps; Log10 Count Rate [1, 8]: 3.274; Log10 Count Rate [1, 9]: 3.274; Zeta-Pot. [2, 10]: 13.87; Zeta-Potential / mV [2, 11]: 12.25 mV; Zeta-Potential / mV [2, 12]: 13.87 mV
5 | QCKFKFQFNM [CK8] | – | – | 3669.6 | – | 1 (+1 = if > 4 mV) | 15.7 | 15.7 | 1 | 3669.6 | 15.7 | 1 | 1 (+1 = if > 4 mV) | –
6 | KLKQLL | – | – | – | – | – | – | – | – | – | – | – | – | Log10 Count Rate [1, 7]: 2.505; Count Rate / kcps [1]: 320 kcps; Log10 Count Rate [1, 8]: 2.505; Log10 Count Rate [1, 9]: 2.505; Zeta-Pot. [2, 10]: -8.46; Zeta-Potential / mV [2, 11]: -5.682 mV; Zeta-Potential / mV [2, 12]: -8.46 mV
7 | KFKFQFNMW | – | – | – | – | – | – | – | – | – | – | – | – | Log10 Count Rate [1, 7]: 2.785; Count Rate / kcps [1]: 610 kcps; Log10 Count Rate [1, 9]: 2.785; Log10 Count Rate ([1]; turbidity, log10 of derived count rate of scattered light): 2.785; Zeta-Pot. [2]: 22.6; Zeta-Potential / mV [2, 11]: 16.22 mV; Zeta-Potential / mV [2, 12]: 22.6 mV
8 | CRFRVPF [CN8] | – | – | 73.97 | – | 1 (+1 = if > 4 mV) | 4.413 | 4.413 | 0 | – | – | – | – | –
9 | CKFKQFF [CK15] | 0 | 2.567 | 2.567 | 11.56 | 1 (+1 = if > 4 mV) | 11.56 | 11.56 | – | 2.567 | 11.56 | – | – | Log Count Rate [1, 14]: 0.4099; Log Count Rate ([1]; Fig S8 panels B, D): 0.4099; Count Rate ([1]; Fig S8 panels B, D, turbidity): 2.57; Zeta Count Rate Category [1, 3]: 0; Zeta category ( +1 = if > 4 mV;-1 = if < -4 mV; 0 = -4mV to 4 mV) [2, 5]: 1 (+1 = if > 4 mV)
10 | QCKIKQII [CK6] | 1 | 301 | 301 | 11 | 1 (+1 = if > 4 mV) | 11 | 11 | – | 301 | 11 | 1 | 1 (+1 = if > 4 mV) | –
11 | MKIKIQINMWQ [TM52] | – | – | 1475 | – | 1 (+1 = if > 4 mV) | 10.8 | 10.8 | 1 | 1475 | 10.8 | 1 | 1 (+1 = if > 4 mV) | –
12 | CKYKYQY [KB2] | – | – | 1061 | – | 0 (0 = -4mV to 4 mV) | 1.49 | 1.49 | 1 | – | – | – | – | –
13 | RGDKIKIQI | – | – | – | – | – | – | – | – | – | – | – | – | Log10 Count Rate [1, 7]: 2.474; Count Rate / kcps [1]: 298 kcps; Log10 Count Rate [1, 8]: 2.474; Log10 Count Rate [1, 9]: 2.474; Zeta-Pot. [2, 10]: -0.899; Zeta-Potential / mV [2, 11]: 2.829 mV; Zeta-Potential / mV [2, 12]: -0.9 mV
14 | KIKIQINMW [JGB1 /TM85] | – | – | 239.6 | – | 1 (+1 = if > 4 mV) | 19.7 | 19.7 | – | 239.6 | 19.7 | 1 | 1 (+1 = if > 4 mV) | –
15 | MKIKIQINM [TM41] | – | – | 981.3 | – | 1 (+1 = if > 4 mV) | 9.13 | 9.13 | 1 | – | – | – | – | –
16 | KAKAQANM [TM152] | – | – | 42.5 | – | 0 (0 = -4mV to 4 mV) | -2.62 | -2.62 | 0 | 42.5 | -2.62 | 0 | 0 (0 = -4mV to 4 mV) | –
17 | KWKWQW [KB3] | – | – | 1545 | – | 1 (+1 = if > 4 mV) | 7.55 | 7.55 | 1 | – | – | – | – | Log Count Rate [1, 14]: 3.189; Log Count Rate ([1]; Fig S8 panels B, D): 3.189; Count Rate ([1]; Fig S8 panels B, D, turbidity): 1544.87
18 | CKIKIQINMW [TM86] | – | – | 4915 | – | 1 (+1 = if > 4 mV) | 18.3 | 18.3 | 1 | 4915 | 18.3 | 1 | 1 (+1 = if > 4 mV) | –
19 | KFKQFFNMWQ [JG5] | 1 | 236.9 | 236.9 | -3.43 | 0 (0 = -4mV to 4 mV) | -3.43 | -3.43 | – | – | – | 1 | 0 (0 = -4mV to 4 mV) | –
20 | QCKAKAQA [CK24] | – | – | 1319.1 | – | 0 (0 = -4mV to 4 mV) | 0.674 | 0.674 | 1 | 1319.1 | 0.674 | 1 | 0 (0 = -4mV to 4 mV) | Log Count Rate ([1]; Fig S8 panels B, D): 3.12; Count Rate ([1]; Fig S8 panels B, D, turbidity): 1319.1
21 | RGDKIKIQI [MG14] | – | – | 298.1 | – | 0 (0 = -4mV to 4 mV) | -0.899 | -0.899 | – | 298.1 | -0.899 | 1 | 0 (0 = -4mV to 4 mV) | –
22 | QCKFKQFF [CK12] | 1 | 225.4 | 225.4 | 4.94 | 1 (+1 = if > 4 mV) | 4.94 | 4.94 | – | 225.4 | 4.94 | – | – | Zeta Count Rate Category [1, 3]: 1; Zeta category ( +1 = if > 4 mV;-1 = if < -4 mV; 0 = -4mV to 4 mV) [2, 5]: 1 (+1 = if > 4 mV)
23 | KLKLQLL [TG4 / (KM2)] | 0 | 72.67 | 72.67 | -4.93 | -1 (-1 = if < -4 mV) | -4.93 | -4.93 | – | – | – | – | – | Zeta Count Rate Category [1, 3]: 0; Zeta category ( +1 = if > 4 mV;-1 = if < -4 mV; 0 = -4mV to 4 mV) [2, 5]: -1 (-1 = if < -4 mV)
24 | QCKIKQIINM [CK5] | 1 | 20551.06667 | 20551.06667 | 10.4 | 1 (+1 = if > 4 mV) | 10.4 | 10.4 | – | 20551.06667 | 10.4 | 1 | 1 (+1 = if > 4 mV) | –

From article PMC10447463, “Data-mining unveils structure–property–activity correlation of viral infectivity enhancing self-assembling peptides” (Nature Communications, 2023)
